Test results reported in PMC8843100, “Development of newly synthesised quinazolinone-based CDK2 inhibitors with potent efficacy against melanoma” (Journal of Enzyme Inhibition and Medicinal Chemistry, 2022).

What was measured:
Test in all cases: NCI-60 single dose screen, sulforhodamine B
Type in all cases: cell-based, human
A498 = details: Renal cancer A498; single dose 10^−5 M
Summary of the method: (§1)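 10 µM single-point, 48 h-equivalent 2-day exposure after 1-day attachment; SRB read on fixed cells; % relative to no-drug and T0.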

A549/ATCC = details: Non-small cell lung cancer A549/ATCC; single dose 10^−5 M
Summary of the method: as §1

BT-549 = details: Breast cancer BT-549; single dose 10^−5 M
Summary of the method: as §1

CAKI-1 = details: Renal cancer CAKI-1; single dose 10^−5 M
Summary of the method: as §1

HCT-116 = details: Colon cancer HCT-116; single dose 10^−5 M
Summary of the method: as §1

HCT-15 = details: Colon cancer HCT-15; single dose 10^−5 M
Summary of the method: as §1

HOP-92 = details: Non-small cell lung cancer HOP-92; single dose 10^−5 M
Summary of the method: as §1

MALME-3M = details: Melanoma MALME-3M; single dose 10^−5 M
Summary of the method: as §1

MDA-MB-231/ATCC = details: Breast cancer MDA-MB-231/ATCC; single dose 10^−5 M
Summary of the method: as §1

NCI-H522 = details: Non-small cell lung cancer NCI-H522; single dose 10^−5 M
Summary of the method: as §1

OVCAR-4 = details: Ovarian cancer OVCAR-4; single dose 10^−5 M
Summary of the method: as §1

OVCAR-5 = details: Ovarian cancer OVCAR-5; single dose 10^−5 M
Summary of the method: as §1

PC-3 = details: Prostate cancer PC-3; single dose 10^−5 M
Summary of the method: as §1

SF-268 = details: CNS cancer SF-268; single dose 10^−5 M
Summary of the method: as §1

SF-295 = details: CNS cancer SF-295; single dose 10^−5 M
Summary of the method: as §1

SF-539 = details: CNS cancer SF-539; single dose 10^−5 M
Summary of the method: as §1

SK-MEL-28 = details: Melanoma SK-MEL-28; single dose 10^−5 M
Summary of the method: as §1

SK-MEL-5 = details: Melanoma SK-MEL-5; single dose 10^−5 M
Summary of the method: as §1

SNB-75 = details: CNS cancer SNB-75; single dose 10^−5 M
Summary of the method: as §1

SR = details: Leukaemia SR; single dose 10^−5 M
Summary of the method: as §1

T-47D = details: Breast cancer T-47D; single dose 10^−5 M
Summary of the method: as §1

TK-10 = details: Renal cancer TK-10; single dose 10^−5 M
Summary of the method: as §1

UACC-257 = details: Melanoma UACC-257; single dose 10^−5 M
Summary of the method: as §1

UACC-62 = details: Melanoma UACC-62; single dose 10^−5 M
Summary of the method: as §1

SMILES | GI% at 10^−5 M (A498) | GI% at 10^−5 M (A549/ATCC) | GI% at 10^−5 M (BT-549) | GI% at 10^−5 M (CAKI-1) | GI% at 10^−5 M (HCT-116) | GI% at 10^−5 M (HCT-15) | GI% at 10^−5 M (HOP-92) | GI% at 10^−5 M (MALME-3M) | GI% at 10^−5 M (MDA-MB-231/ATCC) | GI% at 10^−5 M (NCI-H522) | GI% at 10^−5 M (OVCAR-4) | GI% at 10^−5 M (OVCAR-5) | GI% at 10^−5 M (PC-3) | GI% at 10^−5 M (SF-268) | GI% at 10^−5 M (SF-295) | GI% at 10^−5 M (SF-539) | GI% at 10^−5 M (SK-MEL-28) | GI% at 10^−5 M (SK-MEL-5) | GI% at 10^−5 M (SNB-75) | GI% at 10^−5 M (SR) | other results
O=C(CNn1c(COc2ccccc2)nc2ccccc2c1=O)Nc1ccc(Cl)cc1 [Compound 4c, N-(4-chlorophenyl)-2-((4-oxo-2-(phenoxymethyl)quinazolin-3(4H)-yl)amino)acetamide] | 16.35% | – (– means GI < 10%) | 12.12% | 23.58% | – (– means GI < 10%) | – (– means GI < 10%) | 29.33% | 12.02% | – (– means GI < 10%) | 24.21% | 11.8% | – (– means GI < 10%) | 15.9% | – (– means GI < 10%) | – (– means GI < 10%) | – (– means GI < 10%) | – (– means GI < 10%) | – (– means GI < 10%) | – (– means GI < 10%) | 10.05% | GI% at 10^−5 M (T-47D): 29.33%; GI% at 10^−5 M (TK-10): – (– means GI < 10%); GI% at 10^−5 M (UACC-257): – (– means GI < 10%); GI% at 10^−5 M (UACC-62): 14.58%
O=c1c2ccccc2nc(COc2ccccc2)n1NS(=O)(=O)c1ccccc1 [Compound 5a, N-(4-oxo-2-(phenoxymethyl)quinazolin-3(4H)-yl)benzenesulfonamide] | – (– means GI < 10%) | – (– means GI < 10%) | – (– means GI < 10%) | 15.07% | – (– means GI < 10%) | – (– means GI < 10%) | 10.25% | – (– means GI < 10%) | 13.77% | – (– means GI < 10%) | – (– means GI < 10%) | – (– means GI < 10%) | – (– means GI < 10%) | – (– means GI < 10%) | – (– means GI < 10%) | – (– means GI < 10%) | – (– means GI < 10%) | – (– means GI < 10%) | 40.06% | – (– means GI < 10%) | GI% at 10^−5 M (T-47D): – (– means GI < 10%); GI% at 10^−5 M (TK-10): – (– means GI < 10%); GI% at 10^−5 M (UACC-257): – (– means GI < 10%); GI% at 10^−5 M (UACC-62): – (– means GI < 10%)
CN1CCN(CC(=O)Nn2c(COc3ccccc3)nc3ccccc3c2=O)CC1 [Compound 8a, 2–(4-methylpiperazin-1-yl)-N-(4-oxo-2-(phenoxymethyl)quinazolin-3(4H)-yl)acetamide] | 18.24% | – (– means GI < 10%) | – (– means GI < 10%) | 28.85% | 18.15% | 44.04% | – (– means GI < 10%) | 20.47% | 21.65% | 24.6% | – (– means GI < 10%) | – (– means GI < 10%) | – (– means GI < 10%) | – (– means GI < 10%) | – (– means GI < 10%) | 11.37% | – (– means GI < 10%) | 17.11% | 27.37% | 69.55% | GI% at 10^−5 M (T-47D): 32.2%; GI% at 10^−5 M (TK-10): – (– means GI < 10%); GI% at 10^−5 M (UACC-257): – (– means GI < 10%); GI% at 10^−5 M (UACC-62): 30.69%
COc1ccc(N2CCN(CC(=O)Nn3c(COc4ccccc4)nc4ccccc4c3=O)CC2)cc1 [Compound 8c, 2–(4-(4-methoxyphenyl)piperazin-1-yl)-N-(4-oxo-2-(phenoxymethyl)quinazolin-3(4H)-yl)acetamide] | 15.04% | – (– means GI < 10%) | – (– means GI < 10%) | – (– means GI < 10%) | – (– means GI < 10%) | – (– means GI < 10%) | – (– means GI < 10%) | – (– means GI < 10%) | – (– means GI < 10%) | 10.67% | – (– means GI < 10%) | – (– means GI < 10%) | 14.02% | – (– means GI < 10%) | – (– means GI < 10%) | – (– means GI < 10%) | – (– means GI < 10%) | – (– means GI < 10%) | 26.47% | 12.84% | GI% at 10^−5 M (T-47D): – (– means GI < 10%); GI% at 10^−5 M (TK-10): – (– means GI < 10%); GI% at 10^−5 M (UACC-257): – (– means GI < 10%); GI% at 10^−5 M (UACC-62): – (– means GI < 10%)
